Data from patent US8853207B2 (Development Center for Biotechnology, priority 2012, dated 2014).

Molecular target: FLT3 kinase (FLT3 kinase domain alone, Upstate) (Homo sapiens (Human), UniProt P36888)
Test: FLT3 kinase assay ([33P] incorporation into substrate)
Assay type: biochemical
Conditions: 100 μM ATP, 30° C., 30 minutes; read-out: IC50 against FLT3
Procedure: Inhibition of FLT3 kinase activity by compounds disclosed herein was quantified by measuring the amount of [^33P] incorporated into the substrate in the presence of a test compound. Briefly, a reaction mixture of 25 μL final volume containing 5 ng of FLT3 kinase (FLT3 kinase domain alone, Upstate), 5 μg of the substrate [(Poly (Glu-Tyr, 4:1), Sigma], kinase reaction buffer (20 mM MOPS pH 7.0, 1 mM EDTA, 5% glycerol, 0.01% Brij-35, 0.1% β-mercaptoethanol, 1 mg/mL BSA, 100 μM ATP, 0.1 μCi per well [^33P]-γ-ATP (2,500-3,000 Ci/mmol)), and a test compound (diluted from 9 μM to the desired final concentration by 4% DMSO) or DMSO (as the control) was incubated at 30° C. for 30 minutes. The reaction was stopped by adding 5 μL of 3% phosphoric acid solution. The resultant solution (30 μL) was later harvested by a UniFilter Plate GF/B (PerkinElmer) followed by adding 30 μL of the scintillation cocktail (MicroScint 20, PerkinElmer) to the well. The radioactivity retained on the filter membrane was measured by a luminescence counter (PerkinElmer). The results were analyzed by using linear regression software (GraphPad Prism 4; GraphPad Software Inc.).

Chain of FLT3 kinase (FLT3 kinase domain alone, Upstate) (P36888 610-943): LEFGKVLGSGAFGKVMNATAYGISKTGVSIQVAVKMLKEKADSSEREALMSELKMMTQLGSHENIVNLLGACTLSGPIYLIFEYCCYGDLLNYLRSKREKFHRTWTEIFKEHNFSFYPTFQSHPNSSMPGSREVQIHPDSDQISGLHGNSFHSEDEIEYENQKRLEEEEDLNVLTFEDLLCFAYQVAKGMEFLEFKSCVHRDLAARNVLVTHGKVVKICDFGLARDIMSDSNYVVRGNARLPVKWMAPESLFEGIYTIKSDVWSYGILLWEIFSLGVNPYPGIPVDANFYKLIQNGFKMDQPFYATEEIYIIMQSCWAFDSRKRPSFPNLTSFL

| SMILES | IC50 |
| --- | --- |
| Nc1ccc(Nc2ccc(-c3n[nH]c4c3Cc3sccc3-4)cc2)cc1 [Example-13, N-[4-(4,7-Dihydro-1-thia-4,5-diaza-cyclopenta[a]pentalen-6-yl)-phenyl]-benzene-1,4-diamine] | 100 to 499 nM |
| [O-][n+]1ccc(-c2n[nH]c3c2Cc2sccc2-3)cc1 [Example-61, 6-(1-Oxy-pyridin-4-yl)-4,7-dihydro-1-thia-4,5-diaza-cyclopenta[a]pentalene] | 100 to 499 nM |
| Brc1ccc(-c2[nH]nc3c2Cc2sccc2-3)cc1 [Example-1, 6-(4-Bromo-phenyl)-5,7-dihydro-1-thia-4,5-diaza-cyclopenta[a]-pentalene] | < 100 nM |
| COc1cccc(Nc2n[nH]c3c2Cc2sccc2-3)c1 [Example-26, (4,7-Dihydro-1-thia-4,5-diaza-cyclopenta[a]pentalen-6-yl)-(3-methoxy-phenyl)-amine] | < 100 nM |
| COc1ccc(-c2ccc(-c3n[nH]c4c3Cc3sccc3-4)cc2)cc1OC [Example-14, 6-(3′,4′-Dimethoxy-biphenyl-4-yl)-4,7-dihydro-1-thia-4,5-diaza-cyclopenta[a]pent alene] | < 100 nM |
| N#Cc1ccc(-c2ccc(-c3n[nH]c4c3Cc3sccc3-4)cc2)cc1 [Example-15, 4′-(4,7-Dihydro-1-thia-4,5-diaza-cyclopenta[a]pentalen-6-yl)-biphenyl-4-carbonitrile] | < 100 nM |
| COc1ccccc1Nc1n[nH]c2c1Cc1sccc1-2 [Example-45, (4,7-Dihydro-1-thia-4,5-diaza-cyclopenta[a]pentalen-6-yl)-(2-methoxy-phenyl)-amine] | 100 to 499 nM |
| COc1ccc(-c2n[nH]c3c2C(=O)c2sc(-c4ccc(N)nc4)cc2-3)cc1 [Example-87, 2-(6-Amino-pyridin-3-yl)-6-(4-methoxy-phenyl)-4H-1-thia-4,5-diaza-cyclopenta[a]pentalen-7-one] | < 100 nM |
| CN1CCN(c2ccc(-c3n[nH]c4c3Cc3sccc3-4)cc2)CC1 [Example-80, 6-[4-(4-Methyl-piperazin-1-yl)-phenyl]-4,7-dihydro-1-thia-4,5-diaza-cyclopenta[a]pentalene] | < 100 nM |
| Fc1ccc(Nc2ccc(-c3n[nH]c4c3Cc3sccc3-4)cc2)cc1 [Example-7, [4-(4,7-Dihydro-1-thia-4,5-diaza-cyclopenta[a]pentalen-6-yl)-phenyl]-(4-fluoro-phenyl)-amine] | 100 to 499 nM |
| O=C1c2sccc2-c2[nH]nc(-c3ccc(Br)nc3)c21 [Example-68, 6-(6-Bromo-pyridin-3-yl)-4H-1-thia-4,5-diaza-cyclopenta[a]pentalen-7-one] | 500 to 1000 nM |
| COc1ccc(-c2n[nH]c3c2Cc2sc(-c4ccc(OC)c(OC)c4)cc2-3)cc1 [Example-74, 2-(3,4-Dimethoxy-phenyl)-6-(4-methoxy-phenyl)-4,7-dihydro-1-thia-4,5-diaza-cyclopenta[a]pentalene] | < 100 nM |
| FC(F)(F)c1ccccc1Nc1n[nH]c2c1Cc1sccc1-2 [Example-42, (4,7-Dihydro-1-thia-4,5-diaza-cyclopenta[a]pentalen-6-yl)-(2-trifluoromethyl-phenyl)-amine] | > 1000 nM |
| Clc1cc(Cl)cc(Nc2n[nH]c3c2Cc2sccc2-3)c1 [Example-49, (3,5-Dichloro-phenyl)-(4,7-dihydro-1-thia-4,5-diaza-cyclopenta[a]pentalen-6-yl)-amine] | 100 to 499 nM |
| O=S(=O)(c1ccc(Nc2n[nH]c3c2Cc2sccc2-3)cc1)N1CCCCC1 [Example-55, (4,7-Dihydro-1-thia-4,5-diaza-cyclopenta[a]pentalen-6-yl)-[4-(piperidine-1-sulfonyl)-phenyl]-amine] | 100 to 499 nM |
| COc1ccc(-c2n[nH]c3c2Cc2sc(-c4ccc(O)c(OC)c4)cc2-3)cc1 [Example-75, 2-Methoxy-4-[6-(4-methoxy-phenyl)-4,7-dihydro-1-thia-4,5-diaza-cyclopenta[a]pentalen-2-yl]-phenol] | < 100 nM |

| SMILES | IC50 |
| --- | --- |
| Brc1ccc(-c2n[nH]c3c2Cc2sc(Br)cc2-3)cc1 [Example-33, 2-Bromo-6-(4-bromo-phenyl)-4,7-dihydro-1-thia-4,5-diaza-cyclopenta[a]pentalene] | < 100 nM |
| COc1ccc(Nc2n[nH]c3c2Cc2sccc2-3)cc1 [Example-23, (4,7-Dihydro-1-thia-4,5-diaza-cyclopenta[a]pentalen-6-yl)-(4-methoxy-phenyl)-amine] | > 1000 nM |
| c1cc(-c2n[nH]c3c2Cc2sccc2-3)co1 [Example-17, 6-Furan-3-yl-4,7-dihydro-1-thia-4,5-diaza-cyclopenta[a]pentalene] | 500 to 1000 nM |
| Ic1ccc(Nc2n[nH]c3c2Cc2sccc2-3)cc1 [Example-22, (4,7-Dihydro-1-thia-4,5-diaza-cyclopenta[a]pentalen-6-yl)-(4-iodo-phenyl)-amine] | 100 to 499 nM |
| Brc1ccc(Nc2n[nH]c3c2Cc2sccc2-3)cc1 [Example-20, (4-Bromo-phenyl)-(4,7-dihydro-1-thia-4,5-diaza-cyclopenta[a]pentalen-6-yl)-amine] | 100 to 499 nM |
| Brc1cccc(Nc2n[nH]c3c2Cc2sccc2-3)c1 [Example-36, (3-Bromo-phenyl)-(4,7-dihydro-1-thia-4,5-diaza-cyclopenta[a]pentalen-6-yl)-amine] | 100 to 499 nM |
| O=C1c2sccc2-c2[nH]nc(-c3cccc(Cl)c3)c21 [Example-50, 6-(3-Chloro-phenyl)-4H-1-thia-4,5-diaza-cyclopenta[a]pentalen-7-one] | 100 to 499 nM |
| Fc1cccc(Nc2n[nH]c3c2Cc2sccc2-3)c1 [Example-30, (4,7-Dihydro-1-thia-4,5-diaza-cyclopenta[a]pentalen-6-yl)-(3-fluoro-phenyl)-amine] | 100 to 499 nM |
| COc1ccc(-c2n[nH]c3c2Cc2sc(Br)cc2-3)cc1 [Example-34, 2-Bromo-6-(4-methoxy-phenyl)-4,7-dihydro-1-thia-4,5-diaza-cyclopenta[a]pentalene] | < 100 nM |
| Brc1cc2c(s1)Cc1c(-c3ccccc3)n[nH]c1-2 [Example-27] | < 100 nM |
| Clc1ccc(Nc2n[nH]c3c2Cc2sccc2-3)c(Cl)c1 [Example-21, (2,4-Dichloro-phenyl)-(4,7-dihydro-1-thia-4,5-diaza-cyclopenta[a]pentalen-6-yl)-amine] | 500 to 1000 nM |
| COc1ccc(-c2n[nH]c3c2Cc2sc(-c4ccc(F)c(F)c4)cc2-3)cc1 [Example-72, 2-(3,4-Difluoro-phenyl)-6-(4-methoxy-phenyl)-4,7-dihydro-1-thia-4,5-diaza-cyclopenta[a]pentalene] | < 100 nM |
| Nc1ccc(-c2n[nH]c3c2C(=O)c2sccc2-3)cc1 [Example-56, 6-(4-Amino-phenyl)-4H-1-thia-4,5-diaza-cyclopenta[a]pentalen-7-one] | < 100 nM |
| C(=Cc1ccc(-c2n[nH]c3c2Cc2sccc2-3)cc1)c1ccccc1 [Example-12, 6-(4-Styryl-phenyl)-4,7-dihydro-1-thia-4,5-diaza-cyclopenta[a]pentalene] | > 1000 nM |
| Oc1ccc(-c2n[nH]c3c2Cc2sccc2-3)cc1 [Example-93, 4-(4,7-Dihydro-1-thia-4,5-diaza-cyclopenta[a]pentalen-6-yl)-phenol] | < 100 nM |
| FC(F)(F)c1cc(-c2n[nH]c3c2Cc2sccc2-3)cc(C(F)(F)F)c1 [Example-43, 6-(3,5-Bis-trifluoromethyl-phenyl)-4,7-dihydro-1-thia-4,5-diaza-cyclopenta[a]pen talene] | > 1000 nM |
